Assay results as given in patent publication US11192850B2, “N-aryl oxamic acids” (Purdue Research Foundation, priority 2020, dated 2021).
Read-outs that look alike come from different tables or passages of the source.

Columns and labels:
mPTPB = mPTPB (Mycobacterium tuberculosis (strain ATCC 25618 / H37Rv), UniProt I6WXK4); type: biochemical
PTP1B = PTP1B (Homo sapiens (Human), UniProt P18031); assay: pNPP inhibition assay against PTP1B; type: biochemical
SHP2 = SHP2 (Homo sapiens (Human), UniProt Q06124); assay: pNPP inhibition assay against SHP2; type: biochemical
Sequence of SHP2 (Q06124 247-517): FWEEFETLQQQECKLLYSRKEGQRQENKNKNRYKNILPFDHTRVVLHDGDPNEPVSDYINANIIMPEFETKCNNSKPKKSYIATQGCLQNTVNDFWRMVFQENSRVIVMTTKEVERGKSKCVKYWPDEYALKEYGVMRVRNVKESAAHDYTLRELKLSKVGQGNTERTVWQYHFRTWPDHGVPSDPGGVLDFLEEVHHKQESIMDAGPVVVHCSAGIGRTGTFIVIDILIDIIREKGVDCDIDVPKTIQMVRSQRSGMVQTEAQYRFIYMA

SHP1 = SHP1 (Homo sapiens (Human), UniProt P29350); assay: pNPP inhibition assay against SHP1; type: biochemical
Sequence of SHP1 (P29350 244-515): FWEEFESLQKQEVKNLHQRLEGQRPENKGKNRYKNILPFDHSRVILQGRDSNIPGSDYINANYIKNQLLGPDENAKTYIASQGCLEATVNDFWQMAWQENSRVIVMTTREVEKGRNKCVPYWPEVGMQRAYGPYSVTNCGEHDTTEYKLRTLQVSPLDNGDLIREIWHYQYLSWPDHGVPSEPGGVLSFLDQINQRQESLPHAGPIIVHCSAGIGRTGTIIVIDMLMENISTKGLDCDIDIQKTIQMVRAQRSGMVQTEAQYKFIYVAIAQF

TC-PTP = TC-PTP (Homo sapiens (Human), UniProt P17706); assay: pNPP inhibition assay against TC-PTP; type: biochemical; settings: pNPP at Km of the PTP
Sequence of TC-PTP (P17706 5-275): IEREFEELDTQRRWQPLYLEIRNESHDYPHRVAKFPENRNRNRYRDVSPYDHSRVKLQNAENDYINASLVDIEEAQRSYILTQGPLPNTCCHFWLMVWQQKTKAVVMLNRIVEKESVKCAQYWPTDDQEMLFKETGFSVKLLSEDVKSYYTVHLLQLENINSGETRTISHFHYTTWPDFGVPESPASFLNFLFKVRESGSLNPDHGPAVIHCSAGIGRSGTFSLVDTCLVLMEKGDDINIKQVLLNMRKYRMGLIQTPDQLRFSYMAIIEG

LYP = LYP (Homo sapiens (Human), UniProt Q9Y2R2); assay: pNPP inhibition assay against LYP; type: biochemical; settings: pNPP at Km of the PTP
Sequence of LYP (Q9Y2R2 24-289, species assumed): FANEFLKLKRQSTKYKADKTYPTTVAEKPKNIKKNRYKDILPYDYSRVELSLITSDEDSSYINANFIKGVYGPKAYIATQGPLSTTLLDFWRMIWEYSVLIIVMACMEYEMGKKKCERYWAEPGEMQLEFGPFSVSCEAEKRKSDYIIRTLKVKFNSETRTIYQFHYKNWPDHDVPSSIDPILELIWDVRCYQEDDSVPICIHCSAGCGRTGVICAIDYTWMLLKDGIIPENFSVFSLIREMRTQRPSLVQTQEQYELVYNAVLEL

MKP5 = MKP5 (Homo sapiens (Human), UniProt Q9Y6W6); assay: pNPP inhibition assay against MKP5; type: biochemical; settings: pNPP at Km of the PTP
Sequence of MKP5 (Q9Y6W6 321-464, species assumed): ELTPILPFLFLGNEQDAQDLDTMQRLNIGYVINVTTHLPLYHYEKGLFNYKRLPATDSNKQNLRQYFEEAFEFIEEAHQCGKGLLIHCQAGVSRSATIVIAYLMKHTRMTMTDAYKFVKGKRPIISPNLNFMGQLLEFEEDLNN

LMPTP-1 = LMPTP-1 (Homo sapiens (Human), UniProt P24666); type: biochemical
Sequence of LMPTP-1 (P24666 whole entry, looked up): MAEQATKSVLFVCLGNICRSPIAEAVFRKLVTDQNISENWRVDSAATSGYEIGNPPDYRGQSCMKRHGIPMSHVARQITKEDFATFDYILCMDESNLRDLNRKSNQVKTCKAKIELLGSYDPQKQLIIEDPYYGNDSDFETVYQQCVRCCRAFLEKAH

PTP-PEST = PTP-PEST (Homo sapiens (Human), UniProt Q05209); assay: pNPP inhibition assay against PTP-PEST; type: biochemical; settings: pNPP at Km of the PTP
Sequence of PTP-PEST (Q05209 28-293, species assumed): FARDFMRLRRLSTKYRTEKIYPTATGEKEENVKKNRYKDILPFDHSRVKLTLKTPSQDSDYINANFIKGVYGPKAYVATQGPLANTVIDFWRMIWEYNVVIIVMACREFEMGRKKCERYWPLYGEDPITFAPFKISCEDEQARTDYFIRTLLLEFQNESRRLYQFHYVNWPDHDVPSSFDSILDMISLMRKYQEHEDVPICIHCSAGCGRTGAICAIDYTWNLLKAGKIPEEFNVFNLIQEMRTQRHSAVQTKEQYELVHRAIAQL

PTPγ = PTPγ (Homo sapiens (Human), UniProt P23470); assay: pNPP inhibition assay against PTPγ; type: biochemical; settings: pNPP at Km of the PTP
Sequence of PTPγ (P23470 763-1445): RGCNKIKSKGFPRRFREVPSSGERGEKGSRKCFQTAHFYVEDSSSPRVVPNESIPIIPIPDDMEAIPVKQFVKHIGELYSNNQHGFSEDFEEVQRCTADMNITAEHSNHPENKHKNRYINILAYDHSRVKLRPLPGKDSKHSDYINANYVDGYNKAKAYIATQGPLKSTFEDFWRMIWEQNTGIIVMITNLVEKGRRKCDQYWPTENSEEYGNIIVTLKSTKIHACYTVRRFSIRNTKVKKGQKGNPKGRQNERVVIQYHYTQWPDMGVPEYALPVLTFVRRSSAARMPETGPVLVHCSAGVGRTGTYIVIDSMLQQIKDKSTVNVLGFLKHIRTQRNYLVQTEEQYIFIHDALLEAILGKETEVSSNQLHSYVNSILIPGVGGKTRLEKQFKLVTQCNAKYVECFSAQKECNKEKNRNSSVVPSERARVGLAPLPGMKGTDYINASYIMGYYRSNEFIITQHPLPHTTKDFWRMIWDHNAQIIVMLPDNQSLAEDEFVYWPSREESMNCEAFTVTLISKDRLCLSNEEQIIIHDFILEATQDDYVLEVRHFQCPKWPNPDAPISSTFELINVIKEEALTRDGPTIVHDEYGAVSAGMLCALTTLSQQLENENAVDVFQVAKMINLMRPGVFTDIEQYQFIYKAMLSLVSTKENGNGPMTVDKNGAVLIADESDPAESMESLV

mPTPA = mPTPA (Mycobacterium tuberculosis (strain ATCC 25618 / H37Rv), UniProt P9WIA1); assay: biochemical
[1] = Mouse liver microsomal stability; type: in vitro ADME; settings: for Microsome Stability, % remaining: Mouse, after 60 min at 37° C.
From the text: A sufficient oral dosage must survive first-pass clearance through the liver before reaching its biological target. The majority of drugs/xenobiotics undergo phase I metabolism, mediated by the cytochrome P450 (CYP450) family of heme-thiolate proteins predominantly in the liver. Although mouse liver microsomal (MLM) stability studies are not a perfect substitute for in vivo metabolic clearance studies, but they serve as an initial […] model system that can correlate well with human liver microsomal (HLM) stability and in vivo activity in mice. To this end, compounds 4h, 4k, 4t, 4u, and 4v were allowed to react with mouse liver microsomes and the fraction of remaining parent compound over time was determined. […] Incorporation of fluorine into drug candidates generally improves their potency, bioavailability, and metabolic stability. In addition, fluorinated molecules are in general, nontoxic and mimic the corresponding nonfluorinated analogs in their stereoelectronic properties, so the drug's affinity for the receptor either remains the same or, in some cases increases. […] So, the loss of compounds tested here is attributed only to oxidative Phase I metabolism. The high microsomal stability of these compounds could be exploited pharmacologically.
Mouse (CD-1) pooled liver microsomes purchased from Fisher Scientific, IL, USA (0.5 mg/mL, Corning Gentest 3P, cat#452702), and the assay procedures were followed as previously reported. A solution of mouse liver microsomes and 1 mM of co-factor NADPH in 1 ml of phosphate buffer saline (pH=7.4) was prewarmed to 37° C. in an Eppendorf tube. Then 10 μL of a test solution (10 mM DMSO stock) was added to initiate the reaction. Verapamil-HCl was used as a positive control. […] The incubation mixture was kept at 37° C., and 50 μL aliquots were taken at times of 0, 5, 10, 15, 30 or 60 min. Each of the aliquot was quenched using 200 μL of ice-cold acetonitrile. The mixtures were vigorously vortexed and centrifuged to remove the precipitated protein and the supernatants were analyzed by an Agilent Technologies 6470 series, triple quadrupole LC/MS spectrometer to quantitate the remaining parent compound. The percent of the parent compound remaining was calculated from the formula: % parent compound remaining=(concentration at 60 min/concentration at 0 min)*100

HePTP = HePTP (Homo sapiens (Human), UniProt P35236); assay: pNPP inhibition assay against HePTP; type: biochemical; settings: pNPP at Km of the PTP
Sequence of HePTP (P35236 97-350): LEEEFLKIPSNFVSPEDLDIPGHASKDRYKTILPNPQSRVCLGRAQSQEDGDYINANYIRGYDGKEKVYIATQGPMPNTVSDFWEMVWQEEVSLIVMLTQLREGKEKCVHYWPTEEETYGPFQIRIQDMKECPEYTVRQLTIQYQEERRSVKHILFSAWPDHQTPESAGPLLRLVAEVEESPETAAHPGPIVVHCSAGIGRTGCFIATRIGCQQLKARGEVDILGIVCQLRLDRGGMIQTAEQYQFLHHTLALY

FAP-1 = FAP-1 (Homo sapiens (Human), UniProt Q12923); assay: pNPP inhibition assay against FAP-1; type: biochemical; settings: pNPP at Km of the PTP
Sequence of FAP-1 (Q12923 2213-2467, species assumed): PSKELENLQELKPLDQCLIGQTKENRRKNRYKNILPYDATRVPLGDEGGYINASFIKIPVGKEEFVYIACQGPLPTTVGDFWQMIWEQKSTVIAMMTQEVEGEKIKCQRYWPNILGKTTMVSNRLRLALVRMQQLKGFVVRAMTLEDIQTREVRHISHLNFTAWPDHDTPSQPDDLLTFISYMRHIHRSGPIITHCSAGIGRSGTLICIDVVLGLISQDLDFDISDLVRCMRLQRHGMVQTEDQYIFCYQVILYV

DEP-1 = DEP-1 (Homo sapiens (Human), UniProt Q12913); assay: pNPP inhibition assay against DEP-1; type: biochemical; settings: pNPP at Km of the PTP
Sequence of DEP-1 (Q12913 1041-1298, species assumed): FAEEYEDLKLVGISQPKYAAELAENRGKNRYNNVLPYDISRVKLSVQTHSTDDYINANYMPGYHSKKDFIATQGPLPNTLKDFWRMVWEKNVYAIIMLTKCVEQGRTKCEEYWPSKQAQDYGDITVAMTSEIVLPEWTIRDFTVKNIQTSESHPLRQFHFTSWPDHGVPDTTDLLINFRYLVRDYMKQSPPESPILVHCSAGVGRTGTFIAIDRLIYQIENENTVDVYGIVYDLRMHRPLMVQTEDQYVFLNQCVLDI

Laforin = Laforin (Homo sapiens (Human), UniProt O95278); assay: pNPP inhibition assay against Laforin; type: biochemical; settings: pNPP at Km of the PTP
Sequence of Laforin (O95278 156-323, species assumed): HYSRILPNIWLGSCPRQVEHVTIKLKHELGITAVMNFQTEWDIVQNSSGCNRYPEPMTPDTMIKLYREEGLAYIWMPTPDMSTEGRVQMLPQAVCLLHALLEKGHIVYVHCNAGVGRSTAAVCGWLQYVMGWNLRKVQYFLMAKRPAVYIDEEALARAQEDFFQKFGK

PTP-MEG2 = PTP-MEG2 (Homo sapiens (Human), UniProt P43378); assay: pNPP inhibition assay against PTP-MEG2; type: biochemical; settings: pNPP at Km of the PTP
Sequence of PTP-MEG2 (P43378 303-574): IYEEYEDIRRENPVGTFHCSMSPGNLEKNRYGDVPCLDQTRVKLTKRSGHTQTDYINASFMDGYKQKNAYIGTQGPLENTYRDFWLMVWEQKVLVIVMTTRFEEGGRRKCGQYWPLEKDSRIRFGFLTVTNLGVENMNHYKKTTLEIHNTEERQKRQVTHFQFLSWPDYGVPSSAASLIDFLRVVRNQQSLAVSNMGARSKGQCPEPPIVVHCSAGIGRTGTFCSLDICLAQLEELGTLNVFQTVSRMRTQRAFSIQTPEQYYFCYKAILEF

MKP3 = MKP3 (Homo sapiens (Human), UniProt Q16828); assay: pNPP inhibition assay against MKP3; type: biochemical; settings: pNPP at Km of the PTP
Sequence of MKP3 (Q16828 206-349, species assumed): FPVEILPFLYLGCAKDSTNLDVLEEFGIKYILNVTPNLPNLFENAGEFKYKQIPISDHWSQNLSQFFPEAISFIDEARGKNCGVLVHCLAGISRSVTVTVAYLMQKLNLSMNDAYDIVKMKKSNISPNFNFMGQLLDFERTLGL

CD45 = CD45 (Homo sapiens (Human), UniProt P08575); assay: pNPP inhibition assay against CD45; type: biochemical; settings: pNPP at Km of the PTP
CDC14A = CDC14A (Homo sapiens (Human), UniProt Q9UNH5); assay: pNPP inhibition assay against CDC14A; type: biochemical; settings: pNPP at Km of the PTP
Sequence of CDC14A (Q9UNH5 179-336, species assumed): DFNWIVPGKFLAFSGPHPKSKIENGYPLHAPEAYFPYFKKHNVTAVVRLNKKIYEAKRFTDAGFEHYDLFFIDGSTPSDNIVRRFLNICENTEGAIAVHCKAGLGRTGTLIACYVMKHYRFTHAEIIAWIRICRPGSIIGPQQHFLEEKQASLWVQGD

STEP = STEP (Homo sapiens (Human), UniProt P54829); assay: pNPP inhibition assay against STEP; type: biochemical; settings: pNPP at Km of the PTP
VHR = VHR (Homo sapiens (Human), UniProt P51452); assay: pNPP inhibition assay against VHR; type: biochemical; settings: pNPP at Km of the PTP
PTPα = PTPα (Homo sapiens (Human), UniProt P18433); assay: pNPP inhibition assay against PTPα; type: biochemical; settings: pNPP at Km of the PTP
PTPβ = PTPβ (Homo sapiens (Human), UniProt P23467); assay: biochemical; settings: pNPP at Km of the PTP
PTPμ = PTPμ (Homo sapiens (Human), UniProt P28827); assay: pNPP inhibition assay against PTPμ; type: biochemical; settings: pNPP at Km of the PTP
Sequence of PTPμ (P28827 900-1154): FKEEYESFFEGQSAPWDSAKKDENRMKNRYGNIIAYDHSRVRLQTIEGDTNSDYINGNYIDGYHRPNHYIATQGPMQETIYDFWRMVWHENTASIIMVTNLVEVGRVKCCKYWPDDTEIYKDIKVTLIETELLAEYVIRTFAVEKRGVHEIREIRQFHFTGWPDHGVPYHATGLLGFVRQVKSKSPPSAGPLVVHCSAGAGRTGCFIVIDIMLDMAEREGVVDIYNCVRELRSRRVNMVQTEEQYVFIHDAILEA

[2] = Log D by shake flask method; type: physicochemical; settings: n-octanol and pH 7.4 PBS
Description: To determine the lipophilicity of our inhibitors, the Log D at pH 7.4 was measured using the shake flask method. […] The tubes were shaken for 8 hours, centrifuged at 10000 rpm for 5 minutes then n-octanol and phosphate buffered saline layers separated. […] The ratios of AUC of the peaks were used to calculate the Log D in accordance with the equation: Log D=Log10(AUC of octanol layer/AUC of phosphate buffered saline layer)

[3] = Kinetic solubility in pH 7.4 PBS; type: physicochemical; settings: pH 7.4 PBS buffer
Description: The resulting mixture was stirred at 500 rpm for 90 minutes and then filtered using 0.45 μm PVDF membrane filter. After filtration, the concentration of corresponding compound was determined by HPLC, comparing the AUC obtained with that from a standard solution of the compound. Data represent the mean (t standard deviation, SD) of three separate experiments, performed in triplicate.

[4] = Solubility observed for analogs (qualitative)

Sequence of PTP1B (P18031 3-277): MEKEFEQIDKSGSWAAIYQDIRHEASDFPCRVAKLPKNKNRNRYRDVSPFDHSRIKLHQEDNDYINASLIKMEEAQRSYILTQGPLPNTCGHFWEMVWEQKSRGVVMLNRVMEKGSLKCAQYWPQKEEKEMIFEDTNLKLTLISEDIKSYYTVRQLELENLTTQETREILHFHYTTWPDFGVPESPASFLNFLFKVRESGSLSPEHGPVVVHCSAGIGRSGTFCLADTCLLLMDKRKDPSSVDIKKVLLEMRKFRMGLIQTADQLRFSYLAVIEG
Sequence of mPTPB (I6WXK4 whole entry, looked up): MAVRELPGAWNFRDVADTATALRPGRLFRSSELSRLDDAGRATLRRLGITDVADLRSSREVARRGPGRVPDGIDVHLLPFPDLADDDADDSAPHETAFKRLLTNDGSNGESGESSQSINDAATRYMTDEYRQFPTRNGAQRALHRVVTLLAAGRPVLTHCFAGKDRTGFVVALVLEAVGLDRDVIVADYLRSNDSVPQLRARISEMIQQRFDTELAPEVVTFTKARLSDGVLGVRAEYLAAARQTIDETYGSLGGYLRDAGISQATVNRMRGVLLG

Compound | IC50 (TC-PTP) | IC50 (LYP) | IC50 (MKP5) | IC50 (PTP-PEST) | IC50 (PTPγ) | IC50 (mPTPA) | IC50 (PTP1B; pNPP at Km of the PTP) | IC50 (SHP2; pNPP at Km of the PTP) | IC50 (SHP1; pNPP at Km of the PTP) | Microsome Stability, % remaining [1] | solubility (in words) [4] | further results
CN(C)c1cc(O)c(C(=O)O)cc1C#Cc1cccc(NC(=O)C(=O)O)c1 [Compound 4g, 5-((3-(carboxyformamido)phenyl)ethynyl)-4-(dimethylamino)-2-hydroxybenzoic Acid] | > 50 µM | > 50 µM | > 50 µM | > 50 µM | > 50 µM | > 50 µM |  |  |  |  |  | IC50 (mPTPB): 0.16 µM; IC50 (PTP1B): 45.1 ± 4.5 µM; IC50 (SHP2): 47.5 ± 3.5 µM; IC50 (SHP1): 38.5 ± 4.2 µM; IC50 (LMPTP-1): 34.5 µM
CC(C)(C)c1ccc(C#Cc2ccc(NC(=O)C(=O)O)cc2)cc1 [Compound 4h, 2-((4-((4-(tert-butyl)phenyl)ethynyl)phenyl)amino)-2-oxoacetic Acid] |  |  |  |  |  |  | > 50 µM | > 50 µM | > 50 µM | 27 ± 2.4% |  | IC50 (mPTPB; pNPP assay, pH 7.0, 3.0 mM pNPP): 0.026 ± 0.005 µM; microsomal stability ranking ([1]; mouse liver microsomes, last time point): least stable
O=C(O)C(=O)Nc1ccc(C#Cc2ccc(C(F)(F)F)cc2)cc1 [Compound 4k, 2-oxo-2-((4-((4-(trifluoromethyl)phenyl)ethynyl)phenyl)amino)acetic Acid] | > 50 µM | > 50 µM | > 30 µM | > 30 µM | > 30 µM | > 50 µM | > 50 µM | > 50 µM | > 50 µM | 38 ± 1.6% |  | IC50 (HePTP): > 50 µM; IC50 (FAP-1): > 30 µM; IC50 (DEP-1): > 30 µM; IC50 (Laforin): > 30 µM; IC50 (PTP-MEG2): > 30 µM; IC50 (MKP3): > 30 µM; IC50 (CD45): > 30 µM; IC50 (CDC14A): > 30 µM; IC50 (STEP): > 30 µM; IC50 (VHR): > 30 µM; IC50 (PTPα): > 30 µM; IC50 (PTPβ): > 30 µM; IC50 (PTPμ): > 30 µM; LogD [2]: 1.97; Aq. Sol (μM), kinetic solubility [3]: 22.4 µM
O=C(O)C(=O)Nc1ccc(C#Cc2ccc3ccccc3c2)cc1 [Compound 4q, 2-((4-(naphthalen-2-ylethynyl)phenyl)amino)-2-oxoacetic Acid] |  |  |  |  |  |  | > 50 µM | > 50 µM | > 50 µM |  | poor solubility | 
O=C(O)C(=O)Nc1ccc(C#Cc2ccc(OCc3ccccc3)cc2)cc1 [Compound 4r, 2-((4-((4-(benzyloxy)phenyl)ethynyl)phenyl)amino)-2-oxoacetic Acid] |  |  |  |  |  |  | 38.9 ± 5 µM | 15.3 ± 2.1 µM | 16.8 ± 3.3 µM |  | poor solubility | 
O=C(O)C(=O)Nc1ccc(C#Cc2ccc(C(F)(F)F)cc2Cl)cc1 [Compound 4t, 2-((4-((2-chloro-4-(trifluoromethyl)phenyl)ethynyl)phenyl)amino)-2-oxoacetic Acid] | > 30 µM | > 30 µM | > 30 µM | > 30 µM | > 30 µM | > 30 µM | > 30 µM | > 30 µM | > 30 µM | 56 ± 1.5% |  | 
